Measurements: patent publication US8975406B2, “Compound useful for the treatment of degenerative and inflammatory diseases” (Galapagos N.V., priority 2011, dated 2015)

Tests used:
Assay type in all cases: biochemical
[1] = molecular target: T1, Recombinant human JAK2 (Homo sapiens, UniProt O60674); assay: JAK2 Ulight-JAK1 peptide assay; conditions: Ulight-JAK1(tyr1023) peptide, 7.5 μM ATP
T1 construct: catalytic domain (amino acids 808-1132; catalog number PV4210); GST; purchased Invitrogen PV4210
Protocol: Recombinant human JAK2 (catalytic domain, amino acids […]; catalog number PV4210) was purchased from Invitrogen. 0.0125 mU of JAK2 was incubated with 25 nM Ulight-JAK1(tyr1023) peptide (Perkin Elmer catalog number TRF0121) in kinase reaction buffer (25 mM HEPES pH7.0, 0.01% Triton X-100, 7.5 mM MgCl2, 2 mM DTT, 7.5 μM ATP) with or without 4 μL containing test compound or vehicle (DMSO, 1% final concentration), in a total volume of 20 μL, in a white 384 Opti plate (Perkin Elmer, catalog number 6007290). After 60 min at room temperature, reactions were stopped by adding 20 μL/well of detection mixture (1× detection buffer (Perkin Elmer, catalog number CR97-100C), 0.5 nM Europium-anti-phosphotyrosine (PT66) (Perkin Elmer, catalog number AD0068), 10 mM EDTA). Readout is performed using the Envision with excitation at 320 nm and measuring emission at 615 nm (Perkin Elmer). Kinase activity was calculated by subtracting relative fluorescence units (RFU) obtained in the presence of a positive control inhibitor (10 μM staurosporine) from RFU obtained in the presence of vehicle. The ability of a test compound to inhibit this activity was determined as: Percentage inhibition=((RFU determined for sample with test compound present−RFU determined for sample with positive control inhibitor)divided by(RFU determined in the presence of vehicle−RFU determined for sample with positive control inhibitor))*100.
(§1) Dose dilution series were prepared for each compound enabling the testing of dose-response effects in the JAK2 assay and the calculation of the IC50 for the compound. Each compound is routinely tested at concentration of 20 μM followed by a ⅕ serial dilution, 10 points in a final concentration of 1% DMSO. When potency of compound series increases, more dilutions are prepared and/or the top concentration are lowered (e.g. 5 μM, 1 μM). The data are expressed as the average IC50 from the assays±standard error of the mean.

[2] = molecular target: T2, Recombinant human JAK1 (Homo sapiens, UniProt P23458); assay: JAK1 Ulight-JAK1 peptide assay; conditions: Ulight-JAK1(tyr1023) peptide, 7 μM ATP
T2 construct: catalytic domain (amino acids 866-1154; catalog number PV4774); purchased Invitrogen PV4774
Protocol: Recombinant human JAK1 (catalytic domain, amino acids 866-1154; catalog number PV4774) was purchased from Invitrogen. 1 ng of JAK1 was incubated with 20 nM Ulight-JAK1(tyr1023) peptide (Perkin Elmer catalog number TRF0121) in kinase reaction buffer (25 mM MOPS pH6.8, 0.01% Brij-35, 5 mM MgCl2, 2 mM DTT, 7 μM ATP) with or without 4 μL containing test compound or vehicle (DMSO, 1% final concentration), in a total volume of 20 μL, in a white 384 Opti plate (Perkin Elmer, catalog number 6007290). After 60 min at room temperature, reactions were stopped by adding 20 μL/well of detection mixture (1× detection buffer (Perkin Elmer, catalog number CR97-100C), 0.5 nM Europium-anti-phosphotyrosine (PT66) (Perkin Elmer, catalog number AD0068), 10 mM EDTA). Readout is performed using the Envision with excitation at 320 nm and measuring emission at 615 nm (Perkin Elmer). Kinase activity was calculated by subtracting relative fluorescence units (RFU) obtained in the presence of a positive control inhibitor (10 μM staurosporine) from RFU obtained in the presence of vehicle. The ability of a test compound to inhibit this activity was determined as: Percentage inhibition=((RFU determined for sample with test compound present−RFU determined for sample with positive control inhibitor)divided by(RFU determined in the presence of vehicle−RFU determined for sample with positive control inhibitor))*100.
as §1, with “the compounds” for “each compound”, “JAK1” for “JAK2”

[3] = molecular target: T3, Recombinant human JAK3 catalytic domain (Homo sapiens, UniProt P52333); assay: JAK3 inhibition assay; conditions: polyGT substrate, 33P-gamma-ATP filter assay, 1 μM ATP
T3 construct: catalytic domain (amino acids 795-1124; catalog number 08-046); purchased Carna Biosciences 08-046
Protocol: Recombinant human JAK3 catalytic domain (amino acids 795-1124; catalog number 08-046) was purchased from Carna Biosciences. 0.5 ng JAK3 protein was incubated with 2.5 μg polyGT substrate (Sigma catalog number P0275) in kinase reaction buffer (25 mM Tris pH 7.5, 0.5 mM EGTA, 10 mM MgCl2, 2.5 mM DTT, 0.5 mM Na3VO4, 5 mM b-glycerolphosphate, 0.01% Triton X-100, 1 μM non-radioactive ATP, 0.25 μCi ^33P-gamma-ATP (Perkin Elmer, catalog number NEG602K001MC) final concentrations) with or without 5 μL containing test compound or vehicle (DMSO, 1% final concentration), in a total volume of 25 μL, in a polypropylene 96-well plate (Greiner, V-bottom). After 45 min at 30° C., reactions were stopped by adding 25 μL/well of 150 mM phosphoric acid. All of the terminated kinase reaction was transferred to prewashed (75 mM phosphoric acid) 96 well filter plates (Perkin Elmer catalog number 6005177) using a cell harvester (Perkin Elmer). Plates were washed 6 times with 300 μL per well of a 75 mM phosphoric acid solution and the bottom of the plates was sealed. 40 μL/well of Microscint-20 was added, the top of the plates was sealed and readout was performed using the Topcount (Perkin Elmer). Kinase activity was calculated by subtracting counts per min (cpm) obtained in the presence of a positive control inhibitor (10 μM staurosporine) from cpm obtained in the presence of vehicle. The ability of a test compound to inhibit this activity was determined as: Percentage inhibition=((cpm determined for sample with test compound present−cpm determined for sample with positive control inhibitor)divided by(cpm determined in the presence of vehicle−cpm determined for sample with positive control inhibitor))*100.
Dose dilution series were prepared for the compounds enabling the testing of dose-response effects in the JAK3 assay and the calculation of the IC50 for each compound. Each compound was routinely tested at concentration of 20 μM followed by a ⅕ serial dilution, 10 points in a final concentration of 1% DMSO. When potency of compound series increased, more dilutions were prepared and/or the top concentration was lowered (e.g. 5 μM, 1 μM).

T2 sequence (P23458 866-1154): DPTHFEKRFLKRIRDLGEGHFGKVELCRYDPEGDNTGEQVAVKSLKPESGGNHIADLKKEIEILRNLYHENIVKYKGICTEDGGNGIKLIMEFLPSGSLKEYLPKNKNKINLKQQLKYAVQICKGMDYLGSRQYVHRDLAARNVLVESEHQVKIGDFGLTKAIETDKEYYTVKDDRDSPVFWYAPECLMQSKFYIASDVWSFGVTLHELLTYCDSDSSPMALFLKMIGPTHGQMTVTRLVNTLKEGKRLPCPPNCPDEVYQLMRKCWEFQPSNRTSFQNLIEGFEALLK
T1 sequence (O60674 808-1132): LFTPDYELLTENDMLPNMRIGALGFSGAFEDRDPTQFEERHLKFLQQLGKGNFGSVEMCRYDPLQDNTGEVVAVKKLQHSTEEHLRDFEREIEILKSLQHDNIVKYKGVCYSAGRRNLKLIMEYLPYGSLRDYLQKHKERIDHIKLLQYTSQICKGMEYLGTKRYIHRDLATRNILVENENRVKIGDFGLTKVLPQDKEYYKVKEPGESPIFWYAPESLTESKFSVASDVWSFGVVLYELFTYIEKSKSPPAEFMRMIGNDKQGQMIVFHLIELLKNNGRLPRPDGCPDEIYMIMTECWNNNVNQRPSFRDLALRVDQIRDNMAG
T3 sequence (P52333 795-1124): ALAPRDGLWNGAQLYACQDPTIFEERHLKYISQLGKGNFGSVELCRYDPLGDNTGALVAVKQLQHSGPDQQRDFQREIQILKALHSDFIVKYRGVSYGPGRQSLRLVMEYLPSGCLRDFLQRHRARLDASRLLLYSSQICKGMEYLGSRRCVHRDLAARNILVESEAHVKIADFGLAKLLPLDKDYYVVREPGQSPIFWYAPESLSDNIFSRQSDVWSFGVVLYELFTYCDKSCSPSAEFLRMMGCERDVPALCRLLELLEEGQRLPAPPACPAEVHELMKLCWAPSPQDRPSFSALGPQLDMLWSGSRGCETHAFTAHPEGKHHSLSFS

IC50 [1] [nM]	IC50 [2] [nM]	IC50 [3] [nM]	Compound
0.01 to 100	0.01 to 100	0.01 to 100	CS(=O)(=O)N1CCN(Cc2ccc(-c3cccn4nc(NC(=O)C5CC5)cc34)cc2)CC1 [Compound 15, N-(4-(4-((4-(methylsulfonyl)piperazin-1-yl)methyl)phenyl)pyrazolo[1,5-a]pyridin-2-yl)cyclopropanecarboxamide]
0.01 to 100	0.01 to 100	101 to 500	CC(=O)Nc1cc2c(-c3ccc(CN4CCN(S(C)(=O)=O)CC4)cc3)cccn2n1 [Compound 25, N-(4-(4-((4-(methylsulfonyl)piperazin-1-yl)methyl)phenyl)pyrazolo[1,5-a]pyridin-2-yl)acetamide]
101 to 500	101 to 500	0.01 to 100	O=C(Nc1cc2c(-c3ccc(OCc4ccccc4)cc3)cccn2n1)C1CC1 [Compound 2, N-(4-(4-(benzyloxy)phenyl)pyrazolo[1,5-a]pyridin-2-yl)cyclopropanecarboxamide]
0.01 to 100	0.01 to 100	0.01 to 100	C[C@@H](c1ccc(-c2cccn3nc(NC(=O)C4CC4)cc23)cc1)N1CCN(S(C)(=O)=O)CC1 [Compound 47, (S)-N-(4-(4-(1-(4-(methylsulfonyl)piperazin-1-yl)ethyl)phenyl)pyrazolo[1,5-a]pyridin-2-yl)cyclopropanecarboxamide]
0.01 to 100	0.01 to 100	101 to 500	CS(=O)(=O)C1CCN(Cc2ccc(-c3cccn4nc(NC(=O)C5CC5)cc34)cc2F)CC1 [Compound 18, N-(4-(3-fluoro-4-((4-(methylsulfonyl)piperidin-1-yl)methyl)phenyl)pyrazolo[1,5-a]pyridin-2-yl)cyclopropanecarboxamide]
0.01 to 100	0.01 to 100	101 to 500	O=C(Nc1nn2cccc(-c3ccc(CN4CCS(=O)(=O)CC4)cc3)c2c1Cl)C1CC1 [Compound 13, Cyclopropanecarboxylic acid {4-[4-(1,1-dioxo-thiomorpholin-4-ylmethyl)-phenyl]-3-chloro-pyrazolo[1,5-a]pyridin-2-yl}-amide]
0.01 to 100	0.01 to 100	0.01 to 100	CC(=O)Nc1cc2c(-c3ccc(CN4CCS(=O)(=O)CC4)c(F)c3)cccn2n1 [Compound 27, N-{4-[4-(1,1-Dioxo-thiomorpholin-4-ylmethyl)-3-fluoro-phenyl]-pyrazolo[1,5-a]pyridin-2-yl}-acetamide]
0.01 to 100	0.01 to 100	101 to 500	CS(=O)(=O)C1CCN(Cc2ccc(-c3cccn4nc(NC(=O)C5CC5)cc34)cc2)CC1 [Compound 17, N-(4-(4-((4-(methylsulfonyl)piperidin-1-yl)methyl)phenyl)pyrazolo[1,5-a]pyridin-2-yl)cyclopropanecarboxamide]
0.01 to 100	0.01 to 100	0.01 to 100	COc1ccc(-c2cccn3nc(NC(=O)C4CC4)cc23)cc1 [Compound 1, N-(4-(4-methoxyphenyl)pyrazolo[1,5-a]pyridin-2-yl)cyclopropanecarboxamide]
101 to 500	0.01 to 100	101 to 500	CS(=O)(=O)N1CCN(Cc2ccc(-c3cccn4nc(NC(=O)C5CC5)cc34)cn2)CC1 [Compound 23, N-(4-(6-((4-(methylsulfonyl)piperazin-1-yl)methyl)pyridin-3-yl)pyrazolo[1,5-a]pyridin-2-yl)cyclopropanecarboxamide]
101 to 500	101 to 500	> 1000	CC(=O)Nc1cc2c(-c3cnc(CN4CCN(S(C)(=O)=O)CC4)c(F)c3)cccn2n1 [Compound 26, N-(4-(5-fluoro-6-((4-(methylsulfonyl)piperazin-1-yl)methyl)pyridin-3-yl)pyrazolo[1,5-a]pyridin-2-yl)acetamide]
0.01 to 100	101 to 500	101 to 500	CC(=O)Nc1cc2c(-c3ccc(CC(=O)N4CCOCC4)cc3)cccn2n1 [Compound 36, N-(4-(4-(2-morpholino-2-oxoethyl)phenyl)pyrazolo[1,5-a]pyridin-2-yl)acetamide]
0.01 to 100	0.01 to 100	101 to 500	CC(=O)Nc1cc2c(-c3ccc(C(C)N4CCN(S(C)(=O)=O)CC4)cc3)cccn2n1 (stereo not shown) [Compound 45, N-(4-(4-(1-(4-(methylsulfonyl)piperazin-1-yl)ethyl)phenyl)pyrazolo[1,5-a]pyridin-2-yl)acetamide]
501 to 1000	0.01 to 100	> 1000	CS(=O)(=O)C1CCN(Cc2ccc(-c3cccn4nc(NC(=O)C5CC5)c(Cl)c34)cc2)CC1 [Compound 19, N-(3-chloro-4-(4-((4-(methylsulfonyl)piperidin-1-yl)methyl)phenyl)pyrazolo[1,5-a]pyridin-2-yl)cyclopropanecarboxamide]
101 to 500	0.01 to 100	0.01 to 100	O=C(Nc1cc2c(-c3ccc(CN4CCCCC45COC5)cc3)cccn2n1)C1CC1 [Compound 48, N-(4-(4-(2-oxa-5-azaspiro[3.5]nonan-5-ylmethyl)phenyl)pyrazolo[1,5-a]pyridin-2-yl)cyclopropanecarboxamide]
> 1000	> 1000	> 1000	COc1ccc(-c2cccn3nc(NC(=O)C4CC4)c(-c4ccccc4)c23)cc1 [Compound 7, N-(4-(4-methoxyphenyl)-3-phenylpyrazolo[1,5-a]pyridin-2-yl)cyclopropanecarboxamide]
–	–	101 to 500	O=C(Nc1cc2c(-c3ccc(OCc4cccnc4)cc3)cccn2n1)C1CC1 [Compound 8, N-(4-(4-(pyridin-3-ylmethoxy)phenyl)pyrazolo[1,5-a]pyridin-2-yl)cyclopropanecarboxamide]
